Experimental data from ChEMBL document CHEMBL1944516, “Novel hybrid molecules based on 15-membered azalide as potential antimalarial agents” (Eur J Med Chem, 2012).
Values after ≈ are worked out from the molar mass of the structure shown.

Legend:
[1] = system: Plasmodium falciparum; assay: Ratio of azithromycin IC50 to compound IC50 for chloroquine-sensitive Plasmodium falciparum 3D7A; type: functional
[2] = system: Plasmodium falciparum; assay: Ratio of azithromycin IC50 to compound IC50 for chloroquine and pyrimethamine-resistant Plasmodium falciparum W2; type: functional
[3] = Ratio of drug level in blood to plasma of CD1 mouse at 12.5 mg/kg, iv and 12.5 mg/kg, po by LC-MS/Ms analysis; type: ADME, organism-based
[4] = system: Staphylococcus aureus; assay: Antibacterial activity against Staphylococcus aureus ATCC 13709 by broth microdilution method; type: functional
[5] = system: Streptococcus pneumoniae; assay: Antibacterial activity against clinical isolate Streptococcus pneumoniae SP030; type: functional
[6] = system: Streptococcus pyogenes; assay: Antibacterial activity against clinical isolate Streptococcus pyogenes 3565; type: functional
[7] = system: Moraxella catarrhalis; assay: Antibacterial activity against Moraxella catarrhalis ATCC 23246 by broth microdilution method; type: functional
[8] = system: Haemophilus influenzae; assay: Antibacterial activity against Haemophilus influenzae ATCC 49247 by broth microdilution method; type: functional
[9] = system: Plasmodium falciparum; assay: Antimalarial activity against chloroquine-sensitive Plasmodium falciparum 3D7A infected in human A-positive erythrocytes assessed as inhibition of [3H]-hypoxanthine incorporation after 48 hrs by semi-automated microdilution technique; type: functional, organism-based
[10] = system: Plasmodium falciparum; assay: Antimalarial activity against chloroquine and pyrimethamine-resistant Plasmodium falciparum W2 infected in human A-positive erythrocytes assessed as inhibition of [3H]-hypoxanthine incorporation after 48 hrs by semi-automated microdilution technique; type: functional, organism-based
[11] = system: HepG2; assay: Cytotoxicity against human HepG2 cells after 24 hrs by MTS assay; type: cell-based; details: HepG2, 24 h
[12] = system: Liver; assay: Intrinsic clearance in mouse liver microsomes assessed per gram of liver at 1 uM after 60 mins by LC-MS/Ms analysis; type: ADME, Microsome; details: 1 h
[13] = system: Liver microsomes; assay: Intrinsic clearance in rat liver microsomes assessed per gram of liver at 1 uM after 60 mins by LC-MS/Ms analysis; type: ADME, Microsome; details: 1 h
[14] = system: Liver microsomes; assay: Intrinsic clearance in human liver microsomes assessed per gram of liver at 1 uM after 60 mins by LC-MS/Ms analysis; type: ADME, Microsome; details: 1 h
[15] = Clearance in CD1 mouse at 12.5 mg/kg, iv and 12.5 mg/kg, po by LC-MS/Ms analysis; type: ADME, organism-based; details: in vivo
[16] = Volume of distribution at steady state in CD1 mouse at 12.5 mg/kg, iv and 12.5 mg/kg, po by LC-MS/Ms analysis; type: ADME, organism-based; details: in vivo, read-out: Vdss
[17] = Half life in CD1 mouse at 12.5 mg/kg, iv and 12.5 mg/kg, po by LC-MS/Ms analysis; type: ADME, organism-based; details: in vivo
[18] = system: Mus musculus; assay: Dose normalized AUC in CD1 mouse at 12.5 mg/kg, po by LC-MS/Ms analysis; type: ADME, organism-based; set-up: dose 12.5 mg/kg, route oral; details: in vivo
[19] = Oral bioavailability in CD1 mouse at 12.5 mg/kg by LC-MS/Ms analysis; type: ADME, organism-based; details: in vivo
[20] = system: Plasmodium falciparum; assay: Ratio of chloroquine IC50 to compound IC50 for […] Plasmodium falciparum W2; type: functional

Compound | Ratio IC50 [1] | Ratio IC50 [2] | blood plasma ratio [3] | MIC [4] [µg/mL] | MIC [5] [µg/mL] | MIC [6] [µg/mL] | MIC [7] [µg/mL] | MIC [8] [µg/mL] | IC50 [9] [nM] | IC50 [10] [nM] | IC50 [11] [µM] | CLint [12] [mL/min/g] | CLint [13] [mL/min/g] | CLint [14] [mL/min/g] | clearance [15] [mL/min/kg] | Vd [16] [L/kg] | half-life [17] [days] | AUC/dose [18] [ng·h/mL] | bioavailability [19] [%] | Ratio IC50 [20]
CC[C@H]1OC(=O)[C@H](C)[C@@H](O[C@H]2C[C@@](C)(OC)[C@@H](O)[C@H](C)O2)[C@H](C)[C@@H](O[C@@H]2O[C@H](C)C[C@H](N(C)CCCNC(=O)CCCNc3ccnc4cc(Cl)ccc34)[C@H]2O)[C@](C)(O)C[C@@H](C)CN(C)[C@H](C)[C@@H](O)[C@]1(C)O | 56 | 150 | 1 | > 64 | 4 (≈ 3.85 µM) | 16 (≈ 15.4 µM) | 4 (≈ 3.85 µM) | > 64 | 77 | 48 | > 50 | < 0.6 | < 0.6 | < 0.6 | 47.7 | 116 | 2.66 | 13.28 | 5 | 9
CC[C@H]1OC(=O)[C@H](C)[C@@H](O)[C@H](C)[C@@H](O[C@@H]2O[C@H](C)C[C@H](N(C)CCCNC(=O)CCCNc3ccnc4cc(Cl)ccc34)[C@H]2O)[C@](C)(O)C[C@@H](C)CN(C)[C@H](C)[C@@H](O)[C@]1(C)O | 9 | 9 |  | > 64 | > 64 | > 64 | > 64 | > 64 | 636 | 295 | > 50 |  |  |  |  |  |  |  |  | 
CC[C@H]1OC(=O)[C@H](C)[C@@H](O[C@H]2C[C@@](C)(OC)[C@@H](O)[C@H](C)O2)[C@H](C)[C@@H](O[C@@H]2O[C@H](C)C[C@H](N(C)CCCNc3ccnc4cc(Cl)ccc34)[C@H]2O)[C@](C)(O)C[C@@H](C)CN(C)[C@H](C)[C@@H](O)[C@]1(C)O |  |  |  | > 64 | 8 (≈ 8.39 µM) | 16 (≈ 16.8 µM) | 1 (≈ 1.05 µM) | > 64 |  |  | 3 |  |  |  |  |  |  |  |  | 
CC[C@H]1OC(=O)[C@H](C)[C@@H](O)[C@H](C)[C@@H](O[C@@H]2O[C@H](C)C[C@H](N(C)CCCNc3ccnc4cc(Cl)ccc34)[C@H]2O)[C@](C)(O)C[C@@H](C)CN(C)[C@H](C)[C@@H](O)[C@]1(C)O |  |  |  | > 64 | > 64 | > 64 | 32 (≈ 40.2 µM) | > 64 |  |  | 14 |  |  |  |  |  |  |  |  | 
CC[C@H]1OC(=O)[C@H](C)[C@@H](O[C@H]2C[C@@](C)(OC)[C@@H](O)[C@H](C)O2)[C@H](C)[C@@H](O[C@@H]2O[C@H](C)C[C@H](N(C)C(=O)CCCNc3ccnc4cc(Cl)ccc34)[C@H]2O)[C@](C)(O)C[C@@H](C)CN(C)[C@H](C)[C@@H](O)[C@]1(C)O | 111 | 29 |  | > 64 | 8 (≈ 8.15 µM) | 16 (≈ 16.3 µM) | 4 (≈ 4.07 µM) | > 64 | 104 | 93 | > 50 |  |  |  |  |  |  |  |  | 5
CC[C@H]1OC(=O)[C@H](C)[C@@H](O[C@H]2C[C@@](C)(OC)[C@@H](O)[C@H](C)O2)[C@H](C)[C@@H](O[C@@H]2O[C@H](C)C[C@H](N(C)C(=O)CNc3ccnc4cc(Cl)ccc34)[C@H]2O)[C@](C)(O)C[C@@H](C)CN(C)[C@H](C)[C@@H](O)[C@]1(C)O |  |  |  | 16 (≈ 16.8 µM) | 2 (≈ 2.1 µM) | 4 (≈ 4.19 µM) | 8 (≈ 8.39 µM) | > 64 | 10 | 13 | 27 |  |  |  |  |  |  |  |  | 
CC[C@H]1OC(=O)[C@H](C)[C@@H](O[C@H]2C[C@@](C)(OC)[C@@H](O)[C@H](C)O2)[C@H](C)[C@@H](O[C@@H]2O[C@H](C)C[C@H](N(C)Cc3cn(CCCNc4ccnc5cc(Cl)ccc45)nn3)[C@H]2O)[C@](C)(O)C[C@@H](C)CN(C)[C@H](C)[C@@H](O)[C@]1(C)O |  |  |  | 16 (≈ 15.5 µM) | 0.5 (≈ 0.483 µM) | 0.5 (≈ 0.483 µM) | 2 (≈ 1.93 µM) | > 64 |  |  |  |  |  |  |  |  |  |  |  | 
CC[C@H]1OC(=O)[C@H](C)[C@@H](O[C@H]2C[C@@](C)(OC)[C@@H](O)[C@H](C)O2)[C@H](C)[C@@H](O[C@@H]2O[C@H](C)C[C@H](N(C)C)[C@H]2O)[C@](C)(O)C[C@@H](C)CN(C)[C@H](C)[C@@H](O)[C@]1(C)O [AZITHROMYCIN] |  |  |  | 1 (≈ 1.34 µM) | 0.06 (≈ 0.0801 µM) | 0.125 (≈ 0.167 µM) | 0.06 (≈ 0.0801 µM) | 2 (≈ 2.67 µM) | 11500 | 2680 | 203 |  |  |  |  |  |  |  |  | 
